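A five-concentration, 48-hour dose response in 96-well plates underlies each endpoint, interpolated linearly between surrounding concentrations. TGI: total growth inhibition.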
Columns and labels:
Test in all cases: NCI-60 cell line screen, 48 h
[1] = test system: SK-MEL-2 melanoma
[2] = test system: K-562 leukemia
[3] = test system: MDA-MB-435
[4] = test system: SF-268 CNS
[5] = test system: HCT-116 colon
[6] = test system: SK-MEL-5 melanoma
[7] = test system: SW-620 colon
[8] = test system: UACC-62 melanoma
[9] = test system: OVCAR-5 ovarian
[10] = test system: NCI-H23 lung
[11] = test system: OVCAR-4 ovarian
[12] = test system: SN12C renal
[13] = test system: HOP-92 NSCLC
[14] = test system: TK-10 renal
[15] = test system: ACHN renal
[16] = test system: NCI/ADR-RES ovarian
[17] = test system: HOP-62 NSCLC
[18] = test system: UO-31 renal
[19] = test system: HS 578T breast
[20] = test system: HCT-15 colon
[21] = test system: MDA-N
[22] = test system: A498 renal
[23] = test system: 786-0 renal
[24] = test system: OVCAR-3 ovarian
[25] = test system: NCI-H460 lung
[26] = test system: M14 melanoma
[27] = test system: HCC-2998 colon
[28] = test system: IGROV1 ovarian
[29] = test system: MCF7 breast
[30] = test system: SF-539 CNS
[31] = test system: LOX IMVI melanoma
[32] = test system: MALME-3M melanoma
[33] = test system: SNB-19 CNS
[34] = test system: A549 NSCLC
[35] = test system: EKVX NSCLC
[36] = test system: CAKI-1 renal
[37] = test system: SK-MEL-28 melanoma
[38] = test system: PC-3 prostate
[39] = test system: RPMI-8226 leukemia
[40] = test system: SF-295 CNS
[41] = test system: UACC-257 melanoma
[42] = test system: HT29 colon
[43] = test system: COLO 205 colon
[44] = test system: OVCAR-8 ovarian
[45] = test system: SR leukemia
[46] = test system: CCRF-CEM leukemia
[47] = test system: HL-60(TB) leukemia
[48] = test system: BT-549 breast
[49] = test system: MOLT-4 leukemia
[50] = test system: SK-OV-3 ovarian

Question: For CC(C)CNC(=O)Cn1c2c(c3ccccc31)CCCC2, which TGI [1] is on record?
Answer: Its TGI is over 100 µM.

Question: And the TGI [2]?
Answer: Its TGI is over 100 µM.

Question: And the TGI [3]?
Answer: The TGI was over 100 µM.

Question: And the TGI [4]?
Answer: The TGI was over 100 µM.

Question: What about the TGI [5] of the same compound?
Answer: Its TGI is over 100 µM.

Question: And the TGI [6]?
Answer: The TGI was over 100 µM.

Question: What about the TGI [7] of the same compound?
Answer: Its TGI is over 100 µM.

Question: What about the TGI [8] of the same compound?
Answer: Its TGI is over 100 µM.

Question: And the TGI [9]?
Answer: Its TGI is over 100 µM.

Question: And the TGI [10]?
Answer: Its TGI is over 100 µM.

Question: And the TGI [11]?
Answer: The TGI was over 100 µM.

Question: What about the TGI [12] of the same compound?
Answer: The TGI was over 100 µM.

Question: And the TGI [13]?
Answer: Its TGI is over 100 µM.

Question: What about the TGI [14] of the same compound?
Answer: The TGI was over 100 µM.

Question: What about the TGI [15] of the same compound?
Answer: The TGI was over 100 µM.

Question: What about the TGI [16] of the same compound?
Answer: The TGI was over 100 µM.

Question: And the TGI [17]?
Answer: Its TGI is over 100 µM.

Question: What about the TGI [18] of the same compound?
Answer: The TGI was over 100 µM.

Question: What about the TGI [19] of the same compound?
Answer: Its TGI is over 100 µM.

Question: And the TGI [20]?
Answer: Its TGI is over 100 µM.

Question: What about the TGI [21] of the same compound?
Answer: Its TGI is over 100 µM.

Question: What about the TGI [22] of the same compound?
Answer: The TGI was 85 µM.

Question: And the TGI [23]?
Answer: The TGI was 61.2 µM.

Question: And the TGI [24]?
Answer: Its TGI is over 100 µM.

Question: And the TGI [25]?
Answer: The TGI was over 100 µM.

Question: What about the TGI [26] of the same compound?
Answer: The TGI was over 100 µM.

Question: What about the TGI [27] of the same compound?
Answer: Its TGI is over 100 µM.

Question: And the TGI [28]?
Answer: The TGI was over 100 µM.

Question: What about the TGI [29] of the same compound?
Answer: Its TGI is over 100 µM.

Question: And the TGI [30]?
Answer: Its TGI is over 100 µM.

Question: And the TGI [31]?
Answer: The TGI was over 100 µM.

Question: And the TGI [32]?
Answer: Its TGI is over 100 µM.

Question: What about the TGI [33] of the same compound?
Answer: The TGI was over 100 µM.

Question: What about the TGI [34] of the same compound?
Answer: The TGI was over 100 µM.

Question: What about the TGI [35] of the same compound?
Answer: The TGI was over 100 µM.

Question: And the TGI [36]?
Answer: Its TGI is over 100 µM.

Question: And the TGI [37]?
Answer: The TGI was over 100 µM.

Question: What about the TGI [38] of the same compound?
Answer: The TGI was over 100 µM.

Question: What about the TGI [39] of the same compound?
Answer: The TGI was over 100 µM.

Question: What about the TGI [40] of the same compound?
Answer: Its TGI is over 100 µM.

Question: And the TGI [41]?
Answer: Its TGI is over 100 µM.

Question: And the TGI [42]?
Answer: Its TGI is over 100 µM.

Question: And the TGI [43]?
Answer: Its TGI is over 100 µM.

Question: What about the TGI [44] of the same compound?
Answer: Its TGI is over 100 µM.

Question: And the TGI [45]?
Answer: The TGI was over 100 µM.

Question: What about the TGI [46] of the same compound?
Answer: The TGI was over 100 µM.

Question: And the TGI [47]?
Answer: Its TGI is over 100 µM.

Question: And the TGI [48]?
Answer: The TGI was over 100 µM.

Question: And the TGI [49]?
Answer: The TGI was over 100 µM.

Question: What about the TGI [50] of the same compound?
Answer: The TGI was over 100 µM.

— PubChem BioAssay (NCI)
